Reference: PubChem BioAssay (NCI)
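96-well plates; 48 h exposure; 5 concentrations. Endpoints by linear interpolation between flanking doses. Not reached: highest tested concentration assigned. GI50 marks 50% less growth. The concentration for full growth arrest is given as TGI.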

What was measured:
Assay in all cases: DTP human tumour cell line panel, 48 h
[1] = system: A498 renal
[2] = system: DU-145 prostate
[3] = system: EKVX NSCLC
[4] = system: HOP-92 NSCLC
[5] = system: IGROV1 ovarian
[6] = system: M14 melanoma
[7] = system: MDA-MB-435
[8] = system: NCI-H226 lung
[9] = system: SF-295 CNS
[10] = system: SK-MEL-2 melanoma

SMILES	GI50 [1]	TGI [1]	GI50 [2]	TGI [2]	GI50 [3]	TGI [3]	GI50 [4]	TGI [4]	GI50 [5]	TGI [5]	GI50 [6]	TGI [6]	GI50 [7]	TGI [7]	GI50 [8]	TGI [8]	GI50 [9]	TGI [9]	GI50 [10]	TGI [10]
COc1ccc2c(c1)CCC1C2CC[C@@]2(C)C1CC1=CC(COC(C)=O)C3C(=O)c4ccccc4C(=O)C3C12 (stereo not given in full)	> 100000 nM	> 100 µM	> 100000 nM	> 100 µM	> 100 µM	> 100 µM	1430 nM	49.7 µM	> 100000 nM	> 100 µM	> 100000 nM	> 100 µM	> 100000 nM	> 100 µM	> 100 µM	> 100 µM	> 100000 nM	> 100 µM	> 100000 nM	> 100 µM
O=C(c1ccccc1)c1cc(Cl)ccc1OCCCCN1CCN(CCCCOc2ccc(Cl)cc2C(=O)c2ccccc2)CC1	15200 nM	28.6 µM	2740 nM	10.1 µM	10.8 µM	24.7 µM	2530 nM	13 µM	1600 nM	3.22 µM	2010 nM	4.14 µM	3650 nM	11.9 µM	13.2 µM	32.2 µM	2000 nM	4.15 µM	2580 nM	4.92 µM
Cc1nnc(S(=O)(=O)c2ccc(N=Nc3c(N)nc(N)nc3N)cc2)s1		> 100 µM		> 100 µM		> 100 µM		> 100 µM		> 100 µM		> 100 µM		> 100 µM		> 100 µM		> 100 µM		> 100 µM
CNCCNc1c2c(c(NCCNC)c3c(CN(C)C)c[nH]c13)C(=O)c1ccccc1C2=O	1410 nM	6.27 µM	1530 nM	5.93 µM	2.13 µM	5 µM	1020 nM	5.33 µM	933 nM	12.9 µM	5580 nM	15.5 µM	2500 nM	10.7 µM	6.69 µM	24.2 µM	1590 nM	9.16 µM	2940 nM	16.4 µM
C#Cc1cccc(Nc2ncnc3cc(OC)c(OCCCCCCC(=O)NO)cc23)c1	162 nM	0.662 µM	136 nM	4.45 µM	0.154 µM	6.34 µM	51.2 nM	0.415 µM	86.4 nM	0.476 µM	210 nM	1.99 µM	145 nM	0.528 µM	0.853 µM	4.81 µM	311 nM	2.18 µM	309 nM	1.85 µM
C/C1=C\CC[C@@]2(C)O[C@@H]2[C@H]2OC(=O)[C@@H](CN(C)C)[C@@H]2CC1	25700 nM	44.9 µM	4750 nM	28.1 µM	21.1 µM	41.8 µM	9870 nM	29.7 µM	17900 nM	34.2 µM	16300 nM	35.2 µM	7680 nM	25.3 µM	20.4 µM	40.6 µM	32800 nM	> 100 µM	14200 nM	34.8 µM
COC(=O)/C=C/c1cc(O)c2oc(-c3ccc(O)c(O)c3)c(C(=O)OC)c2c1	1950 nM	9.58 µM	369 nM	12 µM	3.3 µM	16.6 µM	1570 nM	11.3 µM	543 nM	11.5 µM	69.8 nM	9.39 µM	29.5 nM	0.108 µM	3.85 µM	22.3 µM	3130 nM	11.7 µM	740 nM	13.2 µM
COc1cc(Nc2cn[nH]c2-c2ccc(Cl)cc2)cc(OC)c1OC	4580 nM	23.8 µM	8730 nM	42 µM	5.21 µM	52.7 µM	2730 nM	33.4 µM	4600 nM	69.6 µM	2500 nM	9.41 µM	1260 nM	4.24 µM	11.7 µM	30.4 µM	2180 nM	11.3 µM	6820 nM	41.5 µM
C[C@H]1c2cccc(O)c2C(O)=C2C(=O)[C@]3(O)C(O)=C(C(N)=O)C(=O)[C@@H](N(C)C)[C@@H]3[C@@H](O)[C@@H]21	2860 nM	10.4 µM	3610 nM	12.5 µM	3.31 µM	15.5 µM	2350 nM	6.18 µM	2860 nM	9.26 µM	3280 nM	12.6 µM	3010 nM	12.6 µM	3.72 µM	25.7 µM	2000 nM	5.69 µM	3130 nM	8.99 µM
